According to paper PMC5007552, “The hVps34‐SGK3 pathway alleviates sustained PI3K/Akt inhibition by stimulating mTORC1 and tumour growth” (The EMBO Journal, 2016):
Several values for one entry are separate records, joined by “and”; a condition that tells them apart may be missing. Identical values can stand only once.

Tested on: ZR-75-1 cells
Assay: NanoString human kinome mRNA quantification
Type: cell-based
Text: Human mRNAs were hybridised to NanoString human kinome and control code sets, then subjected to quantification using NanoString software. […] To permit data compaction, and simple kinome‐wide comparisons, the fold changes are log2 transformed. […] Cell pellets were resuspended at a concentration of ~6,500 cells/μl in RLT buffer (Qiagen). […] For total copy numbers, triplicate normalised count values were averaged, and to calculate fold induction, means were divided by triplicate mean values from matched DMSO controls. P‐values were calculated using unpaired t‐test (GraphPad Prism software) by employing treated and control count data for each kinase mRNA.

NC1(c2ccc(-c3nc4ccn5c(=O)[nH]nc5c4cc3-c3ccccc3)cc2)CCC1 [MK-2206]
RYK normalised counts (RYK mRNA, single replicates): 1148.59 and 1139.68 and 1120.05 | SBK1 normalised counts, average (SBK1 mRNA, average of 3 replicates): 361.503 | SBK1 normalised counts (SBK1 mRNA, single replicates): 371.43 and 336.09 and 376.99 | SBK2 normalised counts, average (SBK2 mRNA, average of 3 replicates): 1.323 | SBK2 normalised counts (SBK2 mRNA, single replicates): 1.48 and 1 and 1.49 | SCYL1 normalised counts, average (SCYL1 mRNA, average of 3 replicates): 556.557 | SCYL1 normalised counts (SCYL1 mRNA, single replicates): 560.49 and 556.75 and 552.43 | SCYL2 normalised counts, average (SCYL2 mRNA, average of 3 replicates): 1373.8 | SCYL2 normalised counts (SCYL2 mRNA, single replicates): 1302.21 and 1441.13 and 1378.05 | SCYL3 normalised counts, average (SCYL3 mRNA, average of 3 replicates): 629.833 | SCYL3 normalised counts (SCYL3 mRNA, single replicates): 586.85 and 664.48 and 638.17 | SGK1 normalised counts, average (SGK1 mRNA, average of 3 replicates): 34.7533 | SGK1 normalised counts (SGK1 mRNA, single replicates): 45.11 and 34.64 and 24.51 | SGK2 normalised counts, average (SGK2 mRNA, average of 3 replicates): 5.517 | SGK2 normalised counts (SGK2 mRNA, single replicates): 6.93 and 3.37 and 6.25 | SGK3 normalised counts, average (SGK3 mRNA, average of 3 replicates): 345.983 | SGK3 normalised counts (SGK3 mRNA, single replicates): 345.97 and 349.13 and 342.85 | SGK110 normalised counts, average (SGK110 mRNA, average of 3 replicates): 1 | SGK110 normalised counts (SGK110 mRNA, single replicates): 1 | SGK223 normalised counts, average (SGK223 mRNA, average of 3 replicates): 114.123 | SGK223 normalised counts (SGK223 mRNA, single replicates): 115.1 and 115.43 and 111.84 | SGK494 normalised counts (SGK494 mRNA, single replicates): 270.07 and 276.17 | SIK1 normalised counts, average (SIK1 mRNA, average of 3 replicates): 97.7933 | SIK1 normalised counts (SIK1 mRNA, single replicates): 92.37 and 96.32 and 104.69 | SIK2 normalised counts, average (SIK2 mRNA, average of 3 replicates): 489.35 | SIK2 normalised counts (SIK2 mRNA, single replicates): 465.05 and 503.76 and 499.24 | SIK3 normalised counts, average (SIK3 mRNA, average of 3 replicates): 191.663 | SIK3 normalised counts (SIK3 mRNA, single replicates): 213.27 and 183.2 and 178.52 | SLK normalised counts, average (SLK mRNA, average of 3 replicates): 781.283 | SLK normalised counts (SLK mRNA, single replicates): 777.73 and 819.98 and 746.14 | SNRK normalised counts (SNRK mRNA, single replicates): 215.99 and 274.58 | SPEG normalised counts, average (SPEG mRNA, average of 3 replicates): 35.4833 | SPEG normalised counts (SPEG mRNA, single replicates): 26.93 and 40.72 and 38.8 | SRC normalised counts, average (SRC mRNA, average of 3 replicates): 1093.13 | SRC normalised counts (SRC mRNA, single replicates): 1115.87 and 1045.86 and 1117.67 | SRMS normalised counts, average (SRMS mRNA, average of 3 replicates): 3.94 | SRMS normalised counts (SRMS mRNA, single replicates): 1.48 and 2.5 and 7.84 | SRPK1 normalised counts, average (SRPK1 mRNA, average of 3 replicates): 1401.66 | SRPK1 normalised counts (SRPK1 mRNA, single replicates): 1439.46 and 1380.32 and 1385.2 | SRPK3 normalised counts, average (SRPK3 mRNA, average of 3 replicates): 7.937 | SRPK3 normalised counts (SRPK3 mRNA, single replicates): 8.75 and 11.19 and 3.87 | STK3 normalised counts, average (STK3 mRNA, average of 3 replicates): 371.33 | STK3 normalised counts (STK3 mRNA, single replicates): 336.89 and 406.46 and 370.64 | STK10 normalised counts, average (STK10 mRNA, average of 3 replicates): 433.017 | STK10 normalised counts (STK10 mRNA, single replicates): 449.6 and 416.89 and 432.56 | STK11 normalised counts, average (STK11 mRNA, average of 3 replicates): 800.127 | STK11 normalised counts (STK11 mRNA, single replicates): 804.09 and 773.94 and 822.35 | STK16 normalised counts, average (STK16 mRNA, average of 3 replicates): 424.973 | STK16 normalised counts (STK16 mRNA, single replicates): 430.51 and 422.97 and 421.44 | STK17A normalised counts, average (STK17A mRNA, average of 3 replicates): 614.85 | STK17A normalised counts (STK17A mRNA, single replicates): 623.21 and 605.4 and 615.94 | STK17B normalised counts, average (STK17B mRNA, average of 3 replicates): 149.18 | STK17B normalised counts (STK17B mRNA, single replicates): 155.09 and 144.1 and 148.35 | STK19 normalised counts, average (STK19 mRNA, average of 3 replicates): 156.807 | STK19 normalised counts (STK19 mRNA, single replicates): 145.09 and 157.13 and 168.2 | STK24 normalised counts (STK24 mRNA, single replicates): 2291.16 | STK25 normalised counts, average (STK25 mRNA, average of 3 replicates): 893.797 | STK25 normalised counts (STK25 mRNA, single replicates): 868.63 and 899.91 and 912.85 | STK31 normalised counts, average (STK31 mRNA, average of 3 replicates): 2.42 | STK31 normalised counts (STK31 mRNA, single replicates): 2.39 and 1 and 3.87 | STK32A normalised counts, average (STK32A mRNA, average of 3 replicates): 1.637 | STK32A normalised counts (STK32A mRNA, single replicates): 1 and 1.63 and 2.28 | STK32B normalised counts, average (STK32B mRNA, average of 3 replicates): 1.427 | STK32B normalised counts (STK32B mRNA, single replicates): 1 (2×) and 2.28 | STK32C normalised counts, average (STK32C mRNA, average of 3 replicates): 205.643 | STK32C normalised counts (STK32C mRNA, single replicates): 188.41 and 219.8 | STK33 normalised counts, average (STK33 mRNA, average of 3 replicates): 1.163 | STK33 normalised counts (STK33 mRNA, single replicates): 1 (2×) and 1.49 | STK35 normalised counts, average (STK35 mRNA, average of 3 replicates): 342.25 | STK35 normalised counts (STK35 mRNA, single replicates): 336.89 and 343.04 and 346.82 | STK38L normalised counts, average (STK38L mRNA, average of 3 replicates): 664.543 | STK38L normalised counts (STK38L mRNA, single replicates): 674.11 and 657.53 and 661.99 | STK38 normalised counts, average (STK38 mRNA, average of 3 replicates): 732.567 | STK38 normalised counts (STK38 mRNA, single replicates): 697.74 and 733.98 and 765.98 | STK39 normalised counts, average (STK39 mRNA, average of 3 replicates): 817.837 | STK39 normalised counts (STK39 mRNA, single replicates): 763.19 and 842.57 and 847.75 | Normalised counts (single replicate) (VRK3 mRNA): 720.47 and 725.29 and 752.49 | Normalised counts (single replicate) (WEE2 mRNA): 1.48 and 1.63 and 1.49 | Normalised counts (single replicate) (WNK1 mRNA): 3425.55 and 3529.59 and 3400.03 | Normalised counts (single replicate) (WNK2 mRNA): 345.97 and 335.23 and 337.29 | Normalised counts (single replicate) (WNK3 mRNA): 30.56 and 30.3 and 37.21 | Normalised counts (single replicate) (WNK4 mRNA): 5.11 and 1 and 4.66 | Normalised counts (single replicate) (YES1 mRNA): 2809.27 and 2957.96 and 2943.56 | Normalised counts (single replicate) (YSK4 mRNA): 1 (2×) and 1.49 | Normalised counts (single replicate) (ZAK mRNA): 35.11 and 50.28 and 49.91 | Normalised counts (single replicate) (ZAP70 mRNA): 1 (2×) and 1.63 | rank of SGK3 mRNA among AGC kinases (ZR-75-1, DMSO vehicle 29th): 12
